Active and inactive are the calls of the source. The calls are words filed in the database; no cut-off is given here.
Key:
Acetylcholinesterase [1] = target: T1, Acetylcholinesterase (Homo sapiens, UniProt P22303); test: Inhibition of human serum BChE using butyrylthiocholine iodide as substrate by spectrophotometric method
Acetylcholinesterase [2] = target: T1, Acetylcholinesterase
Description: (§1) Inhibition of human recombinant AChE using acetylthiocholine iodide as substrate by spectrophotometric method

[3] = target: Acetylcholinesterase (Electrophorus electricus) (UniProt O42275)
Description: (§2) Inhibition of electric eel AChE using acetylthiocholine iodide as substrate by spectrophotometric method

Acetylcholinesterase [4] = target: T1, Acetylcholinesterase; remark: listed apart in the source
Description: as §1

Acetylcholinesterase [5] = target: Acetylcholinesterase (Electrophorus electricus, UniProt O42275)
Chain of Acetylcholinesterase (Electrophorus electricus, UniProt O42275) (O42275 whole entry): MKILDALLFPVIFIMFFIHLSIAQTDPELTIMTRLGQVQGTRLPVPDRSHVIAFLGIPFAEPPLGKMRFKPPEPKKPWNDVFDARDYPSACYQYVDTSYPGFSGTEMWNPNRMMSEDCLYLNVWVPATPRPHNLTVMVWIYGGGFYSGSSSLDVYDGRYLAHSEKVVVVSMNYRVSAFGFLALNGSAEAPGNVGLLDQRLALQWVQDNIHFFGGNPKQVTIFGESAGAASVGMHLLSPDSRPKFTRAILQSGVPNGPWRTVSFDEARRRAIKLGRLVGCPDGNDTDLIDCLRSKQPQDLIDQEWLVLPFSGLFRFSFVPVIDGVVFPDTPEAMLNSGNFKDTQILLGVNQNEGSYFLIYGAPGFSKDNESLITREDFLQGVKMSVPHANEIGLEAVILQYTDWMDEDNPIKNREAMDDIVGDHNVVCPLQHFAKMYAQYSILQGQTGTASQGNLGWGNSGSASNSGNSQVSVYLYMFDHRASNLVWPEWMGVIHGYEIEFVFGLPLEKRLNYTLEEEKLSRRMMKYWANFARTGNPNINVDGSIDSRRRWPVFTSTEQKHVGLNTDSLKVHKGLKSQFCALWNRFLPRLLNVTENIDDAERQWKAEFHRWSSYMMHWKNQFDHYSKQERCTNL
Description: as §2

T1 sequence (P22303 whole entry): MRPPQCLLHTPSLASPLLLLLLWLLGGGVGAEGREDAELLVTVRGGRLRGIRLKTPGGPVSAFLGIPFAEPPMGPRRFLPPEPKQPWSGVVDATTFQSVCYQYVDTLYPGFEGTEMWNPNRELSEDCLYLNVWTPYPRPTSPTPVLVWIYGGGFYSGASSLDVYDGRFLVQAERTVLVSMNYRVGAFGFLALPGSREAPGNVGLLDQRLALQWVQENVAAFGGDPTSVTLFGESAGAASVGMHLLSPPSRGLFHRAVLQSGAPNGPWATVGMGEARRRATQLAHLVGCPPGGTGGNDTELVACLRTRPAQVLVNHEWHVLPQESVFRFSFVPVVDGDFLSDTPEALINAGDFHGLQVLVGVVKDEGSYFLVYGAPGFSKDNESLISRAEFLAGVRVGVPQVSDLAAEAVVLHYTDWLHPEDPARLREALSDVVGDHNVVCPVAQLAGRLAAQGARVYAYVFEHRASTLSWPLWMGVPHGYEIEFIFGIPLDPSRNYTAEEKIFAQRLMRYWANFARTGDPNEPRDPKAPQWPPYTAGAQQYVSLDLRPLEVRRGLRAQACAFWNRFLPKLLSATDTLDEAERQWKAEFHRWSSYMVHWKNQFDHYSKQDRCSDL
Chain of Acetylcholinesterase (Electrophorus electricus) (O42275 24-633 limits assumed): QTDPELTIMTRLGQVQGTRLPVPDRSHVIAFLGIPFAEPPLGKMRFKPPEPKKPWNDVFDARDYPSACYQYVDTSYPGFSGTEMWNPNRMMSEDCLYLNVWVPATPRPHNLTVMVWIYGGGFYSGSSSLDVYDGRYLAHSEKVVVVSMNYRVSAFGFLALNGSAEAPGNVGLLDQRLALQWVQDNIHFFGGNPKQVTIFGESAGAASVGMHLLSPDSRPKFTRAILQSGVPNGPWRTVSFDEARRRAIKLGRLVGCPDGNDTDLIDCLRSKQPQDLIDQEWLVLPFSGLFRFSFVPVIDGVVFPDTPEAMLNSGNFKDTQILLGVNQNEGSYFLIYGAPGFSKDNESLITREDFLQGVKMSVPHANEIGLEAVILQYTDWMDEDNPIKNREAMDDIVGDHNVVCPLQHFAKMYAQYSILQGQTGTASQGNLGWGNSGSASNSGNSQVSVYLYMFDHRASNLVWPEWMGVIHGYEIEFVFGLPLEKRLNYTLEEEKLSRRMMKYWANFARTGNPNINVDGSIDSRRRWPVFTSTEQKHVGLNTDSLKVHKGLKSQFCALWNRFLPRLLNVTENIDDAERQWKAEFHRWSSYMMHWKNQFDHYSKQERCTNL

Row | Structure (SMILES) | inhibition (Acetylcholinesterase [1]) | inhibition (Acetylcholinesterase [2]) | inhibition [3] | IC50 (Acetylcholinesterase [4]) [µM] | IC50 (Acetylcholinesterase [5]) [µM]
1 | COc1cc(CCCOC(=O)C(C)C)cc2cc(-c3ccc4c(c3)OCO4)oc12 | inactive |  |  |  | 
2 | COc1cc(CCCOC(=O)CCCCCCCC=O)cc2cc(-c3ccc4c(c3)OCO4)oc12 | inactive | inactive |  |  | 
3 | COc1cc(CCCOC(C)=O)cc2cc(-c3ccc4c(c3)OCO4)oc12 | inactive | inactive | inactive |  | 
4 | COc1cc(CCCO)cc2cc(-c3ccc4c(c3)OCO4)oc12 | inactive | inactive | inactive |  | 
5 | COc1cc(CCCOC(=O)NC(C)(C)C)cc2cc(-c3ccc4c(c3)OCO4)oc12 | inactive |  |  |  | 
6 | COc1cc(CCC(=O)O)cc2cc(-c3ccc4c(c3)OCO4)oc12 | inactive | inactive | inactive |  | 
7 | CC(=O)OCCCc1ccc2oc(-c3ccc4c(c3)OCO4)cc2c1 | inactive | inactive | inactive |  | 
8 | COc1cc(CCCOC(=O)Nc2ccccc2)cc2cc(-c3ccc4c(c3)OCO4)oc12 | inactive |  |  | 4.5 | 3.3
9 | CCCCC/C=C\C/C=C\CCCCCCCC(=O)OCCCc1cc(OC)c2oc(-c3ccc4c(c3)OCO4)cc2c1 | inactive |  |  | 1.7 | 1.4
10 | CC[C@H](C)C(=O)OCCCc1cc(OC)c2oc(-c3ccc4c(c3)OCO4)cc2c1 | inactive |  |  | 5.9 | 4.8
11 | CCCC(=O)OCCCc1cc(OC)c2oc(-c3ccc4c(c3)OCO4)cc2c1 | inactive |  |  |  | 
12 | CCCCCCCC/C=C\CCCCCCCC(=O)OCCCc1cc(OC)c2oc(-c3ccc4c(c3)OCO4)cc2c1 [EGONOL OLEATE] | inactive |  |  | 1.8 | 1.4
13 | COc1cc(CCC=O)cc2cc(-c3ccc4c(c3)OCO4)oc12 | inactive | inactive | inactive |  | 
14 | CCCCC/C=C\C/C=C\CCCCCCCC(=O)OCCCc1ccc2oc(-c3ccc4c(c3)OCO4)cc2c1 | inactive |  |  | 2.7 | 2
15 | CCCCCCCC/C=C\CCCCCCCC(=O)OCCCc1ccc2oc(-c3ccc4c(c3)OCO4)cc2c1 | inactive |  |  | 3.1 | 2.2
16 | CC[C@H](C)C(=O)OCCCc1ccc2oc(-c3ccc4c(c3)OCO4)cc2c1 | inactive |  |  | 6.1 | 5.5
17 | CCC(=O)OCCCc1cc(OC)c2oc(-c3ccc4c(c3)OCO4)cc2c1 | inactive | inactive | inactive |  | 
18 | O=CCCCCCCCC(=O)OCCCc1ccc2oc(-c3ccc4c(c3)OCO4)cc2c1 | inactive | inactive |  |  | 
19 | OCCCc1ccc2oc(-c3ccc4c(c3)OCO4)cc2c1 | inactive | inactive | inactive |  | 

Source: ChEMBL document CHEMBL1833820, “Benzofurans from Styrax agrestis as acetylcholinesterase inhibitors: structure-activity relationships and molecular modeling studies” (J Nat Prod, 2011)
